The values that follow come from ChEMBL document CHEMBL4725416, “Structure-Based Discovery of Novel Ligands for the Orexin 2 Receptor” (J Med Chem, 2020).

The target in assay [1] is T1, Orexin receptor type 2 (Homo sapiens) (UniProt O43614).
T1 sequence (whole entry): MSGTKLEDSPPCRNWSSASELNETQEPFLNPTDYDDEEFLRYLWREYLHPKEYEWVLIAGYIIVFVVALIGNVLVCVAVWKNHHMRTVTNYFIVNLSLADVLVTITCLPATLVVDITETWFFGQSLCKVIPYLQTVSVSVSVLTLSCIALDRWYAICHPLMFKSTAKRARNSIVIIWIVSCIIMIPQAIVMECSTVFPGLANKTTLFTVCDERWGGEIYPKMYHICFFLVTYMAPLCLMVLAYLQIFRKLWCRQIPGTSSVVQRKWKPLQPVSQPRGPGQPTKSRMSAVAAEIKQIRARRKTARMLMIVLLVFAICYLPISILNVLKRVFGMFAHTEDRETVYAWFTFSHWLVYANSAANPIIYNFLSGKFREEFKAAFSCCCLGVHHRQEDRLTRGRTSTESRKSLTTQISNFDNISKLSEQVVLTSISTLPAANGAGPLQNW
In words: Agonist activity at human orexin 2 receptor expressed in CHO cells assessed as increase in calcium mobilization incubated for 120 secs by Fluo-4AM dye based fluorescence assay. Particulars: time 120.0 sec. It is filed as functional, cell-based.

Assay [2] concerns the target T2, Orexin/Hypocretin receptor type 1 (Homo sapiens) (UniProt O43613).
T2 sequence (whole entry): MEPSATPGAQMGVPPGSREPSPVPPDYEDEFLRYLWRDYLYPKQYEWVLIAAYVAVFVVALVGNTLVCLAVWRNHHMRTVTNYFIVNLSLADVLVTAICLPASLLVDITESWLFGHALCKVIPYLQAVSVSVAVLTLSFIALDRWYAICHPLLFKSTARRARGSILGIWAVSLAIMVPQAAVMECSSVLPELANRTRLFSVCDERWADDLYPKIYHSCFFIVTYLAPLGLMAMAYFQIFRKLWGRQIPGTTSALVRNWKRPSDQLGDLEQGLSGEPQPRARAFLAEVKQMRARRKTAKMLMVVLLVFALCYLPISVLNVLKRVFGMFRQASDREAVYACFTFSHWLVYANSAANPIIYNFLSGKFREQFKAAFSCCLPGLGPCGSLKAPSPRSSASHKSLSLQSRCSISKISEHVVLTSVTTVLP
Briefly: (§1) Displacement of [3H]-[…] from human orexin 1 receptor expressed in CHO cells incubated for 2 hrs by whole cell radioligand binding assay. It is filed as cell-based. (Loss of bound radioactivity is the signal in a displacement assay; it reports binding, not function.)

The species named for assay [3] is Homo sapiens. Briefly: (§2) Displacement of [3H]-EMPA from human orexin 2 receptor expressed in CHO cells incubated for 2 hrs by whole cell radioligand binding assay. Type of assay: cell-based.
The target in assay [4] is T2, Orexin/Hypocretin receptor type 1 (Homo sapiens). Particulars: CHO, time 120.0 sec.
Description: Agonist activity at human orexin 1 receptor expressed in CHO cells assessed as increase in calcium mobilization incubated for 120 secs by Fluo-4AM dye based fluorescence assay
Assay [5] addresses T3, Orexin/Hypocretin receptor type 1 (Homo sapiens, UniProt O43613).
T3 sequence (O43613 whole entry): T2 sequence (whole entry)
The description is as §1. Type of assay: cell-based.

Assay [6] can be described thus: as §2. Type of assay: cell-based.
Assay [7] is filed under the species Homo sapiens. In words: Displacement of [3H]-EMPA from human orexin 2 receptor expressed in CHO cells incubated for 2 hrs by whole cell radioligand binding assay relative to control. The following applies: dose or concentration not given here. Further details: concentration or dose not given beside the values. It is filed as cell-based.

The structures appear in SMILES notation. The source made the active and inactive calls. Unless noted, no cut-off for these calls is given here.

Consider `O=C(COc1ccc(-c2ccccc2)cc1)c1ccc(O)cc1O`, for which the pEC50 result in assay [1] is “inactive”. Also, the pKi entry in assay [2] and in assay [3] was “inactive” throughout.
Consider `C[C@H](Sc1nc(-c2ccco2)nc2ccccc12)C(=O)N1CCc2ccccc2C1`, for which the pEC50 result in assay [1] and in assay [4] was “inactive” in each case. The compound also gave a Ki in assay [5] of 8.91 µM. In assay [6], this compound yielded a pKi of 5.5.
In assay [7], `Cc1ccc(Oc2ncccc2NC(=O)c2ccc3c(c2)OCCCO3)c2c1CCC2` displayed an inhibition of 67.1%. Besides, the Ki in assay [5] was 5.13 µM. Moreover, the pKi in assay [6] came to 5.19.
Turning to `C[C@@H](Oc1ccc2c(c1)oc(=O)c1ccccc12)C(=O)c1ccccc1`, the pEC50 result in assay [1] and in assay [4] was “inactive” in each case. For the same compound, the inhibition in assay [7] came out at 63.7%. The compound also had a Ki in assay [5] of 5.37 µM. In assay [6], this compound had a pKi of 5.27.
Turning to `O=C(c1ccc(-c2nc3ccccc3s2)o1)N(Cc1ccco1)Cc1ccco1`, the pEC50 entry in assay [1] and in assay [4] was “inactive” each time. Also, in assay [5], affinity was put at a Ki of 3.55 µM. Also, the pKi in assay [6] amounted to 5.5.
Compound `Cc1ccc(C(=O)[C@H](C)Oc2cccc(N3C(=O)[C@H]4[C@H](C)C=CC[C@@H]4C3=O)c2)cc1` came in with an inhibition in assay [7] of 49.9%. In assay [5], this compound showed a Ki of 7.76 µM. In addition, in assay [6], the pKi turned out to be 4.97.
In turn, `O=C(Nc1cccc(/C=C/c2ccccn2)c1)c1occc1COc1ccccc1` gave an inhibition in assay [7] of 39.9%. Further, the Ki in assay [5] is 7.94 µM. This compound also gave a pKi in assay [6] of 4.98.
On to `COc1ccc([C@H]2CCCN2C(=O)c2ccc(OCc3cn4ccccc4n3)cc2)c(OC)c1`, for which the pEC50 result in assay [1] was “inactive”. For the same compound, the Ki in assay [5] was 20.9 µM.
Consider `Cc1ccccc1CN(C)C(=O)Cc1csc(-c2cccc(F)c2)n1`, for which the pEC50 result in assay [1] and in assay [4] was “inactive” in each case. The Ki in assay [5] was 3.24 µM. This compound also registered a pKi in assay [6] of 6.18.
`Cc1ccc2[nH]c(C)c(CC(=O)N(Cc3cccnc3)C3CC3)c2c1`: the pEC50 entry in assay [1] and in assay [4] was “inactive” in each case.
In the case of `Cc1nc2cc(F)cc(C(=O)NCCOc3ccc4ccccc4c3)c2nc1C`, in assay [7], the inhibition came to 61.7%. In assay [6], this compound displayed a pKi of 5.83.
For the compound `Cc1ccccc1OC[C@@H]1CCCN(C(=O)CCc2nc(-c3ccccn3)no2)C1`, in assay [1], the pEC50 entry is “inactive”. Also, in assay [5], the Ki is 15.1 µM.
On to `O=C(c1ccccc1Cc1ccccc1)N1CCN(Cc2csc(-c3ccco3)n2)CC1`, for which the pEC50 entry in assay [1] was “inactive”. This compound also gave a Ki in assay [5] of 14.8 µM.
`Cc1ccc(CSCc2ccc(-c3nc(-c4ccccn4)no3)o2)cc1`: in assay [1], the pEC50 result was “inactive”. In assay [7], this compound displayed an inhibition of 79.2%. In assay [5], this compound had a Ki of 15.5 µM. Besides, the pKi in assay [6] was determined as 5.07.
For the compound `Cc1ccc(-c2nc(CC(=O)N(C)Cc3c(F)cccc3Cl)cs2)o1`, the pEC50 result in assay [1] and in assay [4] was “inactive” each time. In assay [5], this compound showed an inhibitory constant (Ki) of 11.7 µM. For the same compound, in assay [6], the pKi is on record as 5.55.
`Cc1[nH]c2ccccc2c1[C@@H]1c2ccccc2C(=O)N1CCC(=O)N1CCN(c2ccccn2)CC1`: the pEC50 entry in assay [1] was “inactive”. The same compound displayed an IC50 in assay [5] greater than 100 µM.
Turning to `Cc1ccc(-c2nc(CC(=O)N(C)[C@@H](C)c3ccc(F)cc3)cs2)o1`, the pEC50 result in assay [1] and in assay [4] was “inactive” each time. In addition, the Ki in assay [5] is 17 µM. Moreover, in assay [6], the pKi was 5.53.

A word on the pKi: it is the Ki on a negative log10 scale, so that one unit is a factor of ten. What is called Ki is the dissociation constant of the complex between target and ligand, obtained from inhibition or displacement. A word on the inhibition: it is the share of the control response that was lost under treatment. As a reminder, the IC50 is the concentration at which inhibition is half-maximal.
